# Reference: patent US4032659A (priority 1975, dated 1977)
# Where “and” joins values, the source holds several entries; their conditions need not be identical. Equal values may be shown once. Where a name gives a salt, the structure may show the parent alone. Read-outs that look alike come from different tables or passages of the source.
# How the values were obtained:
# [1] = tested on: virus infections; assay: Antiviral screening program, several viruses; conditions: mouse, in vivo
# [2] = tested on: Herpes virus; format: in vivo, mouse
# [3] = tested on: Influenza Ann Arbor virus; assay: Chemoprophylaxis of Influenza Ann Arbor (A1) virus infection in mice; format: in vivo, mouse; conditions: oral
# [4] = tested on: Influenza B Massachusetts virus; assay: Chemoprophylaxis of Influenza B Massachusetts virus infection in mice; format: in vivo, mouse; conditions: oral
# Description: The activity of four compounds on Influenza B Mass. was tested in mice.
# A portion of a commercially available sample of amantadine was recrystallized from isopropanol. The activity of the material against Influenza B Mass. was tested for the sample as obtained, the recrystallized portion, and the mother liquor obtained from recrystallizing the portion.
# [5] = tested on: Influenza PR 8 virus; assay: Chemoprophylaxis of Influenza PR 8 virus infection in mice; format: in vivo, mouse
# [6] = tested on: Vaccinia virus; format: in vivo; conditions: scarified rabbit skin
# [7] = tested on: Herpes virus; assay: Herpes virus in eggs (chick embryo survival); format: in vivo, chicken eggs; conditions: for Deaths on day 1 / Deaths on day 2 / Deaths on day 3 / Total Deaths 4th Day / Deaths on day 4: 12 eggs
# [8] = subcutaneous, total dose .0005 μg
structure (smiles),measurement,setting,value
"NNC(N)=O [semicarbazide, hydrochloride]",activity (in words),[1],"effective against Influenza PR 8 virus, Vaccinia virus in the mouse tail, Herpes virus in eggs, Herpes virus in mice, Neurovaccinia, and Influenza Ann Arbor virus"
same,No. animals surviving when 19/20 controls are dead,"[2]; oral, total dose 5 μg",4
same,No. animals surviving when 19/20 controls are dead,"[2]; oral, total dose .05 μg",4
"NNC(=O)c1ccncc1 [Isoniazid, isoniazid, reference compound]",Survivors,[3]; total dose .005 μg,2
same,Survivors,[3]; total dose .05 μg,2 and 1
same,Survivors,[3]; total dose .5 μg,2 and 1
same,No. animals surviving after 5 days,[4]; total dose .000005 μg,3
same,No. animals surviving when 100% controls are dead,[4]; total dose .000005 μg,0
same,Survivors,[4]; total dose .000005 μg,0
same,No. animals surviving after 5 days,[4]; total dose .00005 μg,2
same,No. animals surviving when 100% controls are dead,[4]; total dose .00005 μg,1
same,Survivors,[4]; total dose .00005 μg,0
same,No. animals surviving after 5 days,[4]; total dose .0005 μg,3
same,No. animals surviving when 100% controls are dead,[4]; total dose .0005 μg,2
same,Survivors,[4]; total dose .0005 μg,0
same,No. animals surviving after 5 days,[4]; total dose .005 μg,5
same,No. animals surviving when 100% controls are dead,[4]; total dose .005 μg,1
same,Survivors,[4]; total dose .005 μg,0
same,No. animals surviving after 5 days,[4]; total dose .05 μg,3
same,No. animals surviving when 100% controls are dead,[4]; total dose .05 μg,1
same,Survivors,[4]; total dose .05 μg,0
same,No. animals surviving after 5 days,[4]; total dose .5 μg,3
same,No. animals surviving when 100% controls are dead,[4]; total dose .5 μg,0
same,Survivors,[4]; total dose .5 μg,0
same,No. animals surviving after 7 days,"[5]; oral, total dose 5 μg",5
same,Survivors,"[5]; oral, total dose 5 μg",2
same,No. animals surviving after 7 days,"[5]; oral, total dose .0000005 μg",1
same,Survivors,"[5]; oral, total dose .0000005 μg",0
same,No. animals surviving after 7 days,"[5]; oral, total dose .000005 μg",2
same,Survivors,"[5]; oral, total dose .000005 μg",0
same,No. animals surviving after 7 days,"[5]; oral, total dose .00005 μg",0
same,Survivors,"[5]; oral, total dose .00005 μg",0
same,No. animals surviving after 7 days,"[5]; oral, total dose .0005 μg",0
same,Survivors,"[5]; oral, total dose .0005 μg",0
same,No. animals surviving after 7 days,"[5]; oral, total dose .005 μg",1
same,Survivors,"[5]; oral, total dose .005 μg",1
same,No. animals surviving after 7 days,"[5]; oral, total dose .05 μg",2
same,Survivors,"[5]; oral, total dose .05 μg",1
same,No. animals surviving after 7 days,"[5]; oral, total dose .5 μg",2
same,Survivors,"[5]; oral, total dose .5 μg",1
same,activity (in words),[1],"active against Influenza PR 8, Influenza Ann Arbor, Influenza B Mass., and Herpes virus"
same,No. animals surviving after 6 days,"[2]; mouse, in vivo, po",2 and 1
same,Survivors,"[2]; oral, total dose .0000005 μg",1
same,No. animals surviving when 17/20 controls are dead,"[2]; oral, total dose .000005 μg",3
same,No. animals surviving after 6 days,"[2]; oral, total dose .00005 μg",0
same,No. animals surviving when 17/20 controls are dead,"[2]; oral, total dose .00005 μg",3
same,No. animals surviving after 6 days,"[2]; oral, total dose .0005 μg",3
same,No. animals surviving when 17/20 controls are dead,"[2]; oral, total dose .0005 μg",0
same,No. animals surviving when 17/20 controls are dead,"[2]; oral, total dose .005 μg",2
same,No. animals surviving when 17/20 controls are dead,"[2]; oral, total dose .05 μg",1
same,Survivors,"[2]; oral, total dose .05 μg",1
"CCC(C)=NNC(N)=S [2-Butanone, thiosemicarbazone, 2-butanone, thiosemicarbazone]",No. animals surviving after 5 days,[4]; total dose .000005 μg,6
same,No. animals surviving when 100% controls are dead,[4]; total dose .000005 μg,3
same,Survivors,[4]; total dose .000005 μg,2
same,No. animals surviving after 5 days,[4]; total dose .00005 μg,8
same,No. animals surviving when 100% controls are dead,[4]; total dose .00005 μg,3
same,Survivors,[4]; total dose .00005 μg,2
same,No. animals surviving after 5 days,[4]; total dose .0005 μg,7
same,No. animals surviving when 100% controls are dead,[4]; total dose .0005 μg,1
same,Survivors,[4]; total dose .0005 μg,0
same,No. animals surviving after 5 days,[4]; total dose .005 μg,4
same,No. animals surviving when 100% controls are dead,[4]; total dose .005 μg,0
same,Survivors,[4]; total dose .005 μg,0
same,No. animals surviving after 5 days,[4]; total dose .05 μg,4
same,No. animals surviving when 100% controls are dead,[4]; total dose .05 μg,2
same,Survivors,[4]; total dose .05 μg,0
same,No. animals surviving after 5 days,[4]; total dose .5 μg,5
same,No. animals surviving when 100% controls are dead,[4]; total dose .5 μg,4
same,Survivors,[4]; total dose .5 μg,1
same,effect on pox formation,[6],variable
same,Survivors,"[5]; drinking water 24 h post-infection only, first printed value (concentration column unclear)",0
same,Survivors,"[5]; drinking water 24 h pre- and 24 h post-infection, 0.5 mg/ml",1
same,No. animals surviving after 6 days,"[5]; oral, total dose .000005 μg",6
same,No. animals surviving after 7 days,"[5]; oral, total dose .000005 μg",4
same,No. animals surviving after 6 days,"[5]; oral, total dose .00005 μg",5
same,No. animals surviving after 7 days,"[5]; oral, total dose .00005 μg",8
same,No. animals surviving when 19/20 of controls are dead,"[5]; oral, total dose .00005 μg",4
same,Survivors,"[5]; oral, total dose .00005 μg",4
same,No. animals surviving when 19/20 of controls are dead,"[5]; oral, total dose .0005 μg",1
same,Survivors,"[5]; oral, total dose .0005 μg",1
same,No. animals surviving when 19/20 of controls are dead,"[5]; oral, total dose .005 μg",0
same,Survivors,"[5]; subcutaneous, total dose .000005 μg",0
same,Survivors,"[5]; subcutaneous, total dose .00005 μg",0
same,No. animals surviving after 6 days,[5]; [8],1
same,Survivors,[5]; [8],1
same,Survivors,"[5]; subcutaneous, total dose .005 μg",0
same,activity (in words),[1],one of the most active compounds that has been studied to date
same,No. animals surviving when 17/20 controls are dead,"[2]; oral, total dose .000005 μg",0
same,Survivors,"[2]; oral, total dose .000005 μg",0
same,No. animals surviving when 17/20 controls are dead,"[2]; oral, total dose .00005 μg",4
same,No. animals surviving when 17/20 controls are dead,"[2]; oral, total dose .0005 μg",5
same,Survivors,"[2]; oral, total dose .0005 μg",4
same,No. animals surviving when 17/20 controls are dead,"[2]; oral, total dose .05 μg",0
same,Survivors,"[2]; oral, total dose .05 μg",0
same,"No. Hatched, total",[7]; all doses,5
same,"No. Living Longer Than Controls, total",[7]; all doses,12
same,Deaths on day 1,[7]; dose 2 μg,1
same,Deaths on day 2,[7]; dose 2 μg,5
same,Deaths on day 3,[7]; dose 2 μg,3
same,Total Deaths 4th Day,[7]; dose 2 μg,9
same,Deaths on day 2,[7]; dose 20 μg,5
same,Deaths on day 3,[7]; dose 20 μg,1
same,Deaths on day 4,[7]; dose 20 μg,2
same,Total Deaths 4th Day,[7]; dose 20 μg,8
same,Deaths on day 1,[7]; dose .00005 μg,2
same,Deaths on day 2,[7]; dose .00005 μg,4
same,Deaths on day 3,[7]; dose .00005 μg,5
same,Total Deaths 4th Day,[7]; dose .00005 μg,11
same,Deaths on day 1,[7]; dose .0005 μg,1
same,Deaths on day 2,[7]; dose .0005 μg,5
same,Deaths on day 3,[7]; dose .0005 μg,3
same,Deaths on day 4,[7]; dose .0005 μg,1
same,Total Deaths 4th Day,[7]; dose .0005 μg,10
same,Deaths on day 1,[7]; dose .005 μg,2
same,Deaths on day 2,[7]; dose .005 μg,4
same,Deaths on day 3,[7]; dose .005 μg,2
same,Deaths on day 4,[7]; dose .005 μg,3
same,Total Deaths 4th Day,[7]; dose .005 μg,11
same,Deaths on day 1,[7]; dose .05 μg,2
same,Deaths on day 2,[7]; dose .05 μg,6
same,Deaths on day 3,[7]; dose .05 μg,3
same,Total Deaths 4th Day,[7]; dose .05 μg,11
same,Deaths on day 1,[7]; dose .5 μg,1
same,Deaths on day 2,[7]; dose .5 μg,3
same,Deaths on day 3,[7]; dose .5 μg,6
same,Deaths on day 4,[7]; dose .5 μg,2
same,Total Deaths 4th Day,[7]; dose .5 μg,12
